These results are taken from publication PMC8116058, “De novo macrocyclic peptides dissect energy coupling of a heterodimeric ABC transporter by multimode allosteric inhibition” (eLife, 2021).

SMILES strings stand for the structures. Positions of bridges follow the written chain, without caps; N, C: chain ends. Non-standard residues stand in square brackets, D forms with d. Residues, ends and D or L forms follow the SMILES beside them. *: point of attachment. 5FAM = O=C1OC2(c3ccc(O)cc3Oc3cc(O)ccc32)c2ccc(C(=O)*)cc21; βAla = NCCC(=O)O

For assay [1], the system named is TmrAB in liposomes. Nature of the assay: ATP hydrolysis assay. Particulars: TmrAB in liposomes 100 nM; ATP 2 mM; CP^F 1 µM; 10 min 45°C; without CP 1.49, autohydrolysis 0.62. The assay is classed as biochemical, Thermus thermophilus. An excerpt: (§1) In order to investigate the functional impact of CPs, we examined the effect of the CPs on ATP hydrolysis and substrate transport of TmrAB (Figure 3A). We reconstituted TmrAB in liposomes and first assayed the ATPase activity. […] We next set out to investigate peptide transport by TmrAB using a filter-based transport assay. To investigate whether CPs are recognized as substrates by TmrAB, we added fluorescein-labeled CP^Fs and examined ATP-dependent translocation. In contrast to the linear substrate peptide C4F, none of the CP^Fs were transported by TmrAB (Figure 3C). Next, we examined ATP-dependent transport of C4F peptides in the presence and absence of the different CPs.
(§2) Figure 3. CP^Fs are potent inhibitors of ATP turnover and substrate transport. (A) Experimental scheme of ATP hydrolysis and peptide transport by TmrAB. (B) CP^Fs inhibit ATP hydrolysis. TmrAB in liposomes (100 nM) was incubated with ATP (2 mM, traced with [γ^32P]-ATP), and MgCl2 (5 mM) in the presence and absence of CP^Fs (1 µM) for 10 min at 45°C. Autohydrolysis was determined in the absence of TmrAB, and background turnover was conducted in the presence of EDTA (10 mM). Release of [γ^32P] was quantified by thin layer chromatography. (C) CP^Fs are not transported by TmrAB. TmrAB (0.4 µM) reconstituted in liposomes was incubated with C4F peptide (3 µM) or CP^Fs (1 µM) in the presence of ATP/ADP (3 mM) and MgCl2 (5 mM) for 5 min at 45°C. Since CP^Fs were dissolved in maximal 0.5% (v/v) of DMSO, C4F plus 0.5% DMSO served as control. Proteoliposomes were washed on filter plates, and transported peptides were quantified at λex/em = 485/520 nm. (D) Inhibition of substrate translocation. TmrAB in liposomes (0.4 µM) were incubated with C4F peptide (3 µM), ATP/ADP (3 mM), and MgCl2 (5 mM) in the presence and absence of CP^Fs (1 µM) for 15 min at 45°C. Transported peptides were quantified as described in (C). In (B–C), mean values ± SD (n = 3) are shown. Figure 3—source data 1. Source data for Figure 3.
TmrAB reconstituted in liposomes (100 nM) were incubated with ATP (2 mM) traced with [γ^32P]-ATP (Hartmann Analytic), ouabain (1 mM), NaN3 (5 mM), EGTA (50 µM), MgCl2 (3 mM), and CP^Fs (1 µM) for 10 min at 45°C. Autohydrolysis and background hydrolysis were examined in the absence of proteoliposomes or the presence of EDTA (10 mM). Samples were spotted onto polyethyleneimine cellulose plates (Merck Millipore), and thin-layer chromatography was performed with 0.8 M LiCl-acetic acid pH 3.2. Plates were developed overnight on Exposure Cassette-K (Bio-Rad) and evaluated on Personal Molecular Imager System (Bio-Rad). Data were recorded in triplicates and the mean values ± SD (n = 3) are shown.

Assay [2] deals with T1, TmrAB reconstituted in liposomes (Thermus thermophilus, UniProt Q72J04+Q72J05).
T1 sequence (Q72J05 1-600): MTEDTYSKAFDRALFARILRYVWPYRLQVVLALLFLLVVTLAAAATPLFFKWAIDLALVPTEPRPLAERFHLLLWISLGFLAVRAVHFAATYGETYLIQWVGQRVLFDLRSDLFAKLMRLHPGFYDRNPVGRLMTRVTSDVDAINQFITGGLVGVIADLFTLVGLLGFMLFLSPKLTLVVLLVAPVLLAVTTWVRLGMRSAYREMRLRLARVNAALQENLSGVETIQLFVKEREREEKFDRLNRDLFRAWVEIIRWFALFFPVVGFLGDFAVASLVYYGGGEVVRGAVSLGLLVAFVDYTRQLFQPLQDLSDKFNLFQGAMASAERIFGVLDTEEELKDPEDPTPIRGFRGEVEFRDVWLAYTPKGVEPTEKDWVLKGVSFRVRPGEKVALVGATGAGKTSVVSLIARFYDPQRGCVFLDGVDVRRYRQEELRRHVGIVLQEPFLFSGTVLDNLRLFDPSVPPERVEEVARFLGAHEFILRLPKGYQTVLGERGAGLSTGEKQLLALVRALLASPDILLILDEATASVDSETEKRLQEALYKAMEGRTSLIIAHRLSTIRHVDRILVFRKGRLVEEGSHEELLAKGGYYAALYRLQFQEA
T1 sequence (Q72J04 1-578): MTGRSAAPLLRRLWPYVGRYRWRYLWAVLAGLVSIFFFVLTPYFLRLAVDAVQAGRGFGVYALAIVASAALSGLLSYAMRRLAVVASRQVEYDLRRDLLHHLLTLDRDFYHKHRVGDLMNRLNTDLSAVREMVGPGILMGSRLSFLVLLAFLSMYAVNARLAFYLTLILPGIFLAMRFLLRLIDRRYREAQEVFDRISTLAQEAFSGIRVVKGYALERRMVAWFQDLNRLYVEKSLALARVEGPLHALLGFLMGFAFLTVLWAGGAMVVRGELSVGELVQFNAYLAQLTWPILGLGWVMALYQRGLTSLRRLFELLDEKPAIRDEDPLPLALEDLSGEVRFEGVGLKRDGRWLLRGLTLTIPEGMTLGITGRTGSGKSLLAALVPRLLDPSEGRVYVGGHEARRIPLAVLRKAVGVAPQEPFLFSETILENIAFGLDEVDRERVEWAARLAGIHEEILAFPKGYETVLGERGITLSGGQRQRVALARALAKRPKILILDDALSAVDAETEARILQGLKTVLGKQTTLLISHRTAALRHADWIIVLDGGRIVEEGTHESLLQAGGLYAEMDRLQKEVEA
Nature of the assay: Filter-based transport assay, CP^Fs tested as substrates. The assay is classed as biochemical. To be noted: TmrAB 0.4 µM in liposomes, C4F 3 µM or CP^F 1 µM, 5 min 45°C.
Description: as §1, §2
(§3) TmrAB in liposomes (0.4 µM) were incubated with ATP/ADP (3 mM), MgCl2 (5 mM), C4F peptide (3 µM), and CP^Fs (1 µM) for 15 min at 45°C. […] Proteoliposomes were solubilized by adding SDS (1% [v/v]) in transport buffer for 10 min at 20°C. Transported peptides were quantified at λex/em = 485/520 nm using a microplate reader (CLARIOstar, BMG LABTECH).

Assay [3] deals with TmrAB in liposomes. The experiment in a line: Filter-based transport assay, inhibition of C4F translocation. The assay is classed as biochemical, Thermus thermophilus. Particulars: C4F 3 µM, CP^F 1 µM, 15 min 45°C; for Transported C4F peptide: TmrAB 0.4 µM.
Description: as §1, §2, §3

Setting [4] is: ADP 3 mM (background), without CP 0.01.

Consider `CC[C@H](C)[C@@H]1NC(=O)[C@H]([C@@H](C)O)NC(=O)[C@H](CC(C)C)NC(=O)[C@H](Cc2c[nH]c3ccccc23)NC(=O)[C@H](Cc2ccccc2)NC(=O)[C@H](CC(N)=O)NC(=O)[C@H](CCC(=O)O)NC(=O)[C@H](CC(C)C)NC(=O)[C@H](CS)NC(=O)[C@H](Cc2c[nH]cn2)NC(=O)[C@H](CO)NC(=O)[C@@H](Cc2ccc(O)cc2)NC(=O)CSC[C@@H](C(=O)NCC(=O)N[C@@H](CO)C(=O)NCCC(=O)NCCC(=O)N[C@@H](CCCNC(=N)N)C(=O)N[C@@H](CCCCNC(=O)c2ccc3c(c2)C(=O)OC32c3ccc(O)cc3Oc3cc(O)ccc32)C(N)=O)NC(=O)[C@H](CC(C)C)NC1=O` [CP6] ({CH2CO}-[dY]SHCLENFWLTILCGS[βAla][βAla]RK(5FAM)-NH2; thioether N-14), for which the ATP hydrolysis in assay [1] is on record as 0.54 mmol Pi (g*min)^-1. In addition, the Transported peptide in assay [2] (ADP 3 mM (background)) came out at 0.38 µmol·g/min; in assay [2] (ATP 3 mM), 0.33 µmol·g/min. Moreover, the “Transported C4F peptide” value came out at 0.37 µmol·g/min in assay [3] (setting [4]) and 0.29 µmol·g/min in assay [3] (ATP 3 mM, without CP 1.66). Besides, the “Effect on ATP-dependent C4F peptide translocation” value (“Effect” for short) in assay [3] is “completely blocked peptide translocation”.

For `CC(C)C[C@@H]1NC(=O)[C@H](Cc2ccccc2)NC(=O)CNC(=O)[C@H](CO)NC(=O)[C@H](Cc2ccccc2)NC(=O)[C@H](CC(=O)O)NC(=O)[C@@H]2CCCN2C(=O)[C@H]([C@@H](C)O)NC(=O)[C@@H](Cc2ccc(O)cc2)NC(=O)CSC[C@@H](C(=O)NCC(=O)N[C@@H](CO)C(=O)NCCC(=O)NCCC(=O)N[C@@H](CCCNC(=N)N)C(=O)N[C@@H](CCCCNC(=O)c2ccc3c(c2)C(=O)OC32c3ccc(O)cc3Oc3cc(O)ccc32)C(N)=O)NC(=O)[C@H](C)NC(=O)[C@H](CC(N)=O)NC(=O)[C@H](CCCNC(=N)N)NC(=O)[C@H](CC(C)C)NC(=O)[C@H](Cc2ccccc2)NC(=O)[C@H](C)NC1=O` [CP12] ({CH2CO}-[dY]TPDFSGFLAFLRNACGS[βAla][βAla]RK(5FAM)-NH2; thioether N-16), the ATP hydrolysis in assay [1] was 0.37 mmol Pi (g*min)^-1. For the same compound, the results for the Transported peptide in assay [2] (ADP 3 mM (background)) and in assay [2] (ATP 3 mM) were 0.55 µmol·g/min and 0.44 µmol·g/min, respectively. Besides, the “Transported C4F peptide” value in assay [3] (setting [4]) was 0.41 µmol·g/min; in assay [3] (ATP 3 mM, without CP 1.66), 0.41 µmol·g/min. Moreover, the “Effect” value in assay [3] is given as “completely blocked peptide translocation”.

`CC[C@H](C)[C@@H]1NC(=O)[C@H](Cc2c[nH]c3ccccc23)NC(=O)[C@H](CC(N)=O)NC(=O)[C@H](C)NC(=O)[C@H](CO)NC(=O)[C@@H]2CCCN2C(=O)[C@H](CC(=O)O)NC(=O)[C@@H](Cc2ccc(O)cc2)NC(=O)CSC[C@@H](C(=O)NCC(=O)N[C@@H](CO)C(=O)NCCC(=O)NCCC(=O)N[C@@H](CCCNC(=N)N)C(=O)N[C@@H](CCCCNC(=O)c2ccc3c(c2)C(=O)OC32c3ccc(O)cc3Oc3cc(O)ccc32)C(N)=O)NC(=O)[C@H]([C@@H](C)O)NC(=O)[C@H](CC(C)C)NC(=O)[C@H](CC(C)C)NC(=O)[C@H](C(C)C)NC(=O)[C@H](CC(C)C)NC1=O` [CP13] ({CH2CO}-[dY]DPSANWILVLLTCGS[βAla][βAla]RK(5FAM)-NH2; thioether N-14; C-terminus assumed): the ATP hydrolysis in assay [1] is 0.39 mmol Pi (g*min)^-1. The Transported peptide in assay [2] (ADP 3 mM (background)) is 0.28 µmol·g/min; in assay [2] (ATP 3 mM), 0.33 µmol·g/min. Further, the “Transported C4F peptide” value in assay [3] (setting [4]) amounted to 0.25 µmol·g/min; in assay [3] (ATP 3 mM, without CP 1.66), 0.41 µmol·g/min. In addition, the “Effect” value in assay [3] was “only caused a partial inhibition”.

Consider `CC(C)[C@@H]1NC(=O)[C@H](Cc2ccccc2)NC(=O)[C@@H]2CCCN2C(=O)[C@H](CC(N)=O)NC(=O)[C@H](Cc2c[nH]c3ccccc23)NC(=O)[C@H](C(C)C)NC(=O)[C@H](Cc2ccc(O)cc2)NC(=O)[C@H](Cc2ccccc2)NC(=O)[C@@H](Cc2ccc(O)cc2)NC(=O)CSC[C@@H](C(=O)NCC(=O)N[C@@H](CO)C(=O)NCCC(=O)NCCC(=O)N[C@@H](CCCNC(=N)N)C(=O)N[C@@H](CCCCNC(=O)c2ccc3c(c2)C(=O)OC32c3ccc(O)cc3Oc3cc(O)ccc32)C(N)=O)NC(=O)[C@H](CCCCN)NC(=O)[C@H](Cc2ccccc2)NC1=O` [CP14] ({CH2CO}-[dY]FYVWNPFVFKCGS[βAla][βAla]RK(5FAM)-NH2; thioether N-12; C-terminus assumed), for which the ATP hydrolysis in assay [1] is listed as 0.39 mmol Pi (g*min)^-1. The values for the Transported peptide in assay [2] (ADP 3 mM (background)) and in assay [2] (ATP 3 mM) were 0.25 µmol·g/min and 0.26 µmol·g/min, respectively. Besides, the “Transported C4F peptide” value in assay [3] (setting [4]) is 0.15 µmol·g/min; in assay [3] (ATP 3 mM, without CP 1.66), 0.41 µmol·g/min. For the same compound, the “Effect” value in assay [3] is reported as “only caused a partial inhibition”.
